The results in this text go back to the NIST ThermoML archive (doi:10.1016/j.tca.2006.10.012).

± gives the expanded uncertainty stated by the source.

For this data set the following is noted: 300 K; 101.33 kPa; Crystal; Coaxial cylinder method.

`[BH3-][NH3+]` [ammonia borane]: the thermal conductivity stood at 15 ± 3 W/m/K.
